Assay results taken from the supplement of paper PMC10307832.

Key:
Test in all cases: relative viability (nuclei count vs DMSO), 5 days (fraction); higher = more cells survive
Midostaurin + Pemetrexed = compound: CO[C@@H]1[C@H](N(C)C(=O)c2ccccc2)C[C@H]2O[C@]1(C)n1c3ccccc3c3c4c(c5c6ccccc6n2c5c31)C(=O)NC4 [Midostaurin] + Nc1nc2[nH]cc(CCc3ccc(C(=O)N[C@@H](CCC(=O)O)C(=O)O)cc3)c2c(=O)[nH]1 [Pemetrexed] (partner 0.2 µM)
In short: (§1)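 Each reported value is a median over duplicate plates. It expresses relative viability: treated-well nuclei count divided by vehicle-well nuclei count. Lung cancer cell lines in 1536-well plates were dosed by pin tool a day after seeding, alone with one drug or with a fixed anchor-drug dose plus five library-drug doses (not always all listed) in √10 steps, and nuclei were counted after 5 days.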

[1] = compound: COc1cc(-c2nn([C@H]3CC[C@H](N4CCN(C(C)=O)CC4)CC3)c3ncnc(N)c23)ccc1NC(=O)c1cc2ccccc2n1C + Nc1nc2[nH]cc(CCc3ccc(C(=O)N[C@@H](CCC(=O)O)C(=O)O)cc3)c2c(=O)[nH]1 [Pemetrexed] (partner 0.2 µM)
In short: as §1

Midostaurin + Alpelisib = compound: CO[C@@H]1[C@H](N(C)C(=O)c2ccccc2)C[C@H]2O[C@]1(C)n1c3ccccc3c3c4c(c5c6ccccc6n2c5c31)C(=O)NC4 [Midostaurin] + Cc1nc(NC(=O)N2CCC[C@H]2C(N)=O)sc1-c1ccnc(C(C)(C)C(F)(F)F)c1 [Alpelisib] (partner 2 µM)
In short: as §1

[2] = compound: COc1cc(-c2nn([C@H]3CC[C@H](N4CCN(C(C)=O)CC4)CC3)c3ncnc(N)c23)ccc1NC(=O)c1cc2ccccc2n1C + CS(=O)(=O)CCNCc1ccc(-c2ccc3ncnc(Nc4ccc(OCc5cccc(F)c5)c(Cl)c4)c3c2)o1 [Lapatinib] (partner 2 µM)
In short: as §1

Midostaurin + Linsitinib = compound: CO[C@@H]1[C@H](N(C)C(=O)c2ccccc2)C[C@H]2O[C@]1(C)n1c3ccccc3c3c4c(c5c6ccccc6n2c5c31)C(=O)NC4 [Midostaurin] + C[C@]1(O)C[C@@H](c2nc(-c3ccc4ccc(-c5ccccc5)nc4c3)c3c(N)nccn32)C1 [Linsitinib] (partner 1 µM)
In short: as §1

Cell Line	relative viability (Midostaurin + Pemetrexed; first compound 0.01 µM)	relative viability (Midostaurin + Pemetrexed; first compound 0.3162 µM)	relative viability ([1]; first compound 0.0128 µM)	relative viability ([1]; first compound 0.04048 µM)	relative viability ([1]; first compound 0.128 µM)	relative viability ([1]; first compound 1.28 µM)	relative viability (Midostaurin + Alpelisib; first compound 0.01 µM)	relative viability (Midostaurin + Alpelisib; first compound 0.03162 µM)	relative viability (Midostaurin + Alpelisib; first compound 0.1 µM)	relative viability (Midostaurin + Alpelisib; first compound 0.3162 µM)	relative viability (Midostaurin + Pemetrexed; first compound 0.03162 µM)	relative viability (Midostaurin + Pemetrexed; first compound 0.1 µM)	relative viability ([2]; first compound 0.0128 µM)	relative viability ([2]; first compound 0.04048 µM)	relative viability ([2]; first compound 0.128 µM)	relative viability ([2]; first compound 1.28 µM)	relative viability (Midostaurin + Linsitinib; first compound 0.01 µM)	relative viability (Midostaurin + Linsitinib; first compound 0.03162 µM)	relative viability (Midostaurin + Linsitinib; first compound 0.1 µM)	relative viability (Midostaurin + Linsitinib; first compound 0.3162 µM)
NCI-H1648	0.671	0.823	0.92	0.738	0.857	0.646	–	–	–	–	–	–	–	–	–	–	–	–	–	–
SK-MES-1	0.856	0.854	1.08	0.994	0.904	0.755	0.886	0.818	0.986	0.671	0.826	0.885	0.397	0.561	0.443	0.451	1.05	0.954	1.06	1.07
HCC-366	0.156	0.156	0.141	0.24	0.208	0.232	0.331	0.297	0.318	0.323	0.15	0.153	1.09	0.998	1.07	0.66	0.624	0.754	0.457	0.381
201T	0.345	0.32	0.394	0.288	0.316	0.309	1.04	1.01	1.02	1.08	0.311	0.323	1.11	1.04	1	0.915	1.05	1	1.07	1.04
HCC-827	0.249	0.255	0.253	0.251	0.211	0.238	0.984	1	0.948	1.02	0.251	0.241	0.192	0.172	0.182	0.204	0.928	0.883	0.852	1.06
NCI-H647	0.185	0.112	0.19	0.154	0.172	0.164	0.948	1.15	0.861	0.672	0.2	0.184	1.24	0.974	0.981	0.632	1.09	1.37	1.1	0.738
NCI-H2023	0.194	0.19	0.258	0.211	0.229	0.242	0.608	0.563	0.526	0.583	0.244	0.227	0.856	0.782	0.923	0.845	0.653	0.617	0.515	0.403
NCI-H520	0.662	0.407	0.637	0.732	0.603	0.409	0.891	0.882	0.845	0.981	0.723	0.736	0.818	0.745	0.685	0.646	0.924	0.991	0.968	0.787
RERF-LC-KJ	0.477	0.463	0.489	0.494	0.47	0.46	0.846	1.02	0.924	0.969	0.476	0.492	0.911	0.915	0.849	0.857	0.945	0.868	0.89	0.926
A-427	1.04	1.08	0.972	1.07	0.906	0.93	1.05	0.996	1.07	0.982	0.888	0.94	1.18	0.944	0.852	0.907	1.14	1.08	1.09	1.09
NCI-H441	0.304	0.254	0.275	0.306	0.254	0.295	0.817	0.669	0.536	0.736	0.259	0.222	–	–	–	–	0.569	0.56	0.432	0.435
NCI-H1703	–	–	–	–	–	–	0.343	0.369	0.27	0.209	–	–	1.09	0.988	0.842	0.352	0.838	0.69	0.672	0.296
NCI-H1792	0.761	0.424	0.883	0.913	0.797	0.729	0.703	0.672	0.63	0.654	0.835	0.756	0.83	0.773	0.883	0.755	0.577	0.556	0.499	0.526
Calu-6	–	–	–	–	–	–	0.944	0.913	0.914	0.766	–	–	1.08	1.01	0.91	0.875	0.946	0.889	1	0.922
SK-LU-1	0.99	0.794	1.06	1.03	0.936	0.686	0.913	1.17	0.894	0.647	0.92	0.836	0.913	0.902	0.721	0.681	1.11	0.961	1.06	0.664
PC-3 [JPC-3]	0.979	1.22	0.971	1.15	1.02	1.15	1	0.925	1.02	1.04	1.07	0.962	0.444	0.444	0.431	0.462	0.913	0.862	0.925	0.934
EMC-BAC-2	0.407	0.457	0.445	0.557	0.426	0.493	0.765	0.717	0.586	0.61	0.431	0.383	0.909	0.935	0.842	0.801	0.84	0.777	0.669	0.765
LK-2	0.265	0.342	0.298	0.248	0.27	0.133	1.09	1.48	1.11	1.05	0.262	0.299	1.09	0.981	0.83	0.777	0.462	0.62	0.559	0.816
NCI-H2126	0.672	0.688	0.621	0.656	0.669	0.618	0.772	0.733	0.765	0.804	0.627	0.711	0.801	0.859	0.718	0.68	0.742	0.673	0.748	0.792

Cell Line	relative viability (Midostaurin + Pemetrexed; first compound 0.01 µM)	relative viability (Midostaurin + Pemetrexed; first compound 0.3162 µM)	relative viability ([1]; first compound 0.0128 µM)	relative viability ([1]; first compound 0.04048 µM)	relative viability ([1]; first compound 0.128 µM)	relative viability ([1]; first compound 1.28 µM)	relative viability (Midostaurin + Alpelisib; first compound 0.01 µM)	relative viability (Midostaurin + Alpelisib; first compound 0.03162 µM)	relative viability (Midostaurin + Alpelisib; first compound 0.1 µM)	relative viability (Midostaurin + Alpelisib; first compound 0.3162 µM)	relative viability (Midostaurin + Pemetrexed; first compound 0.03162 µM)	relative viability (Midostaurin + Pemetrexed; first compound 0.1 µM)	relative viability ([2]; first compound 0.0128 µM)	relative viability ([2]; first compound 0.04048 µM)	relative viability ([2]; first compound 0.128 µM)	relative viability ([2]; first compound 1.28 µM)	relative viability (Midostaurin + Linsitinib; first compound 0.01 µM)	relative viability (Midostaurin + Linsitinib; first compound 0.03162 µM)	relative viability (Midostaurin + Linsitinib; first compound 0.1 µM)	relative viability (Midostaurin + Linsitinib; first compound 0.3162 µM)
NCI-H3122	0.201	0.19	0.19	–	0.201	0.194	0.86	0.683	0.924	0.878	0.185	0.201	1.04	–	0.99	0.841	0.913	0.987	1.13	1.05
NCI-H1975	0.298	0.279	0.318	0.29	0.297	0.255	0.613	0.628	0.575	0.38	0.31	0.271	0.891	0.928	0.837	0.447	0.92	0.959	0.727	0.575
NCI-H1944	0.61	0.642	0.65	0.589	0.571	0.6	0.799	0.908	0.887	0.946	0.579	0.566	0.944	0.95	0.777	0.69	1.17	1.25	1.31	1.28
LU99A	0.182	0.224	0.162	0.225	0.169	0.252	0.437	0.457	0.396	0.387	0.165	0.167	1.11	1.1	1.12	0.904	0.5	0.503	0.408	0.407
SW 1573	0.843	0.752	0.862	0.754	0.885	0.759	0.73	0.721	0.805	0.618	0.957	0.849	0.981	1	0.914	0.808	0.747	0.848	0.979	1.02
NCI-H1299	–	–	–	–	–	–	1.03	1.05	1.04	1.03	–	–	0.997	1.11	0.984	1.04	0.943	0.91	0.95	0.616
NCI-H727	–	–	–	–	–	–	0.526	0.471	0.538	0.296	–	–	0.804	–	0.754	0.718	0.329	0.337	0.349	0.227
LCLC-103H	0.464	0.467	0.54	0.428	0.47	0.471	0.932	0.979	1.04	1.06	0.53	0.452	–	–	–	–	1.12	1.16	1.16	1.14
ABC-1	–	–	–	–	–	–	1.05	0.879	0.816	0.897	–	–	1.26	1.17	1.04	0.891	0.854	0.546	0.628	0.727
NCI-H1650	0.315	0.3	0.332	0.384	0.348	0.468	–	–	–	–	0.415	0.322	0.782	0.846	0.69	0.6	–	–	–	–
ChaGo-K-1	0.25	0.277	0.258	0.26	0.252	0.237	–	–	–	–	0.266	0.256	–	–	–	–	–	–	–	–
SW 900	0.468	0.478	0.487	0.489	0.469	0.373	–	–	–	–	0.477	0.488	–	–	–	–	–	–	–	–
A549	–	–	–	–	–	–	0.742	0.705	0.679	0.265	–	–	0.961	1.02	0.953	1.06	0.609	0.59	0.511	0.423
NCI-H2342	0.785	0.73	0.762	0.821	0.781	0.771	–	–	–	–	0.72	0.794	–	–	–	–	–	–	–	–
NCI-H2170	0.297	0.266	0.267	0.275	0.296	0.253	0.828	0.856	0.722	0.707	0.268	0.265	0.253	0.283	0.243	0.249	–	–	–	–
NCI-H522	1.19	1.24	1	0.939	1.14	0.822	–	–	–	–	1.14	0.941	–	–	–	–	–	–	–	–
IA-LM	–	–	–	–	–	–	0.853	–	0.821	0.891	–	–	0.83	1.16	0.79	1.15	0.557	0.378	0.711	0.673
EBC-1	–	–	–	–	–	–	0.871	0.735	0.746	0.605	–	–	0.203	0.23	0.205	0.19	0.901	0.735	0.873	0.24
